The text below walks through data of patent publication US10828349B2, “Treatment of microbial infections” (NATIONAL UNIVERSITY OF IRELAND, GALWAY, priority 2011, dated 2020).

Where only a bound is given, the exact number is not on record here.

Data set [1] deals with R479/2012 9028. Nature of the data set: antibiotic susceptibility of strain. As to conditions: R479/2012 9028, cystic fibrosis sputum isolate. The arrangement: key: ‘S’ denotes sensitive; ‘R’ denotes resistant or increased tolerance. The data set is classed as cell-based, P. aeruginosa. The procedure: (§1) The susceptibility of a number of P. aeruginosa strains to the KI-Dose-150 composition was tested using the method described in Example 1. […] The relative susceptibilities are described in Table 4.

The test system of data set [2] is R550/2012 9026. Nature of the data set: antibiotic susceptibility of strain. The data set is classed as cell-based, P. aeruginosa. The arrangement: key: ‘S’ denotes sensitive; ‘R’ denotes resistant or increased tolerance. As to conditions: R550/2012 9026, cystic fibrosis sputum isolate. On the procedure: as §1
Data set [3] deals with R480/2012 9029. Nature of the data set: antibiotic susceptibility of strain. In kind it is cell-based, P. aeruginosa. Set-up: key: ‘S’ denotes sensitive; ‘R’ denotes resistant or increased tolerance. Particulars: R480/2012 9029, cystic fibrosis sputum isolate. The procedure:
as §1

The test system of data set [4] is R468/2012 9027. Nature of the data set: antibiotic susceptibility of strain. Set-up: key: ‘S’ denotes sensitive; ‘R’ denotes resistant or increased tolerance. Particulars: R468/2012 9027, cystic fibrosis sputum isolate. In kind it is cell-based, P. aeruginosa. The procedure: as §1
In data set [5] the test system is P. aeruginosa D12. In words: antibiotic susceptibility of strain. In kind it is cell-based. Set-up: key: ‘S’ denotes sensitive; ‘R’ denotes resistant or increased tolerance. The procedure:
as §1

In data set [6] the test system is E. coli. Particulars: constant H2O2 (glucose oxidase) and LP; substrate 40 mg/ml doubly diluted; Mueller Hinton broth.
Description: (§2) Secondly, an assay where the concentration of substrates was maintained constant, and the H2O2 levels were varied was employed.
This was aliquoted (150 μl) to rows of a 96-well plate. […] The samples were doubly diluted as far as well 11, leaving well 12 as a control. The plate was incubated overnight at 37° C., and the optical density measured throughout.
Data set [7] relates to bacterial cells. Nature of the data set: lower limits of components of the enzymatic system, LB broth. In kind it is cell-based. As to conditions: for level of required substrate: glucose and glucose oxidase levels sufficient. The procedure: The lower limits of each of the components in an enzymatic system, required to produce inhibitory biocidal concentrations of the antimicrobial agents, were determined (for example Table 1 and Table 5). To establish these lower limits for each component, minimum inhibitory concentrations for each were calculated using doubling dilutions on a 96-well plate, in a manner similar to that described in Example 1, wherein the concentration of the component of choice is lowered until no effect on growth is noted. […] At levels below this, there was insufficient reactive oxygen species produced to result in effective bactericidal activity. The level of LP required for a reaction to produce the reactive oxygen species at the required concentrations was determined at 0.15 unit activity/ml (1 mM KI present). […] This embodiment of the invention suitable for the therapeutic treatment of mastitis also included beta-galactosidase to convert the lactose present in milk to glucose.

For data set [8], the system named is E. coli. Particulars: constant substrate and LP; glucose/glucose oxidase doubly diluted; Mueller Hinton broth.
Description: as §2
This was aliquoted (150 μl) to a 96 well plate.
Data set [9] has as its system Staphycoccus epidermidis central venous catheter-related biofilm. Particulars: cited from earlier work; for result relative to gentamycin and vancomycin: biofilm lock therapy model; for duration of treatment after which biofilm cells were still recoverable: 10 g/L antibiotic.
Data set [10] relates to bacterial cells. In words: potency in broth growth medium containing catalase. In kind it is cell-based. Particulars: hydrogen peroxide 0.85 M only. On the procedure: This embodiment is referred to as ‘KI-Dose-150’.
The potency of the doses was not reversed. A 1:1024 dilution of the doses was inhibitory in the absence of catalase, and a 1:512 dilution of the doses was inhibitory in the presence of catalase.
As a comparison, the test was performed using only hydrogen peroxide (0.85 M), both in the presence and absence of catalase.

Data set [11] has as its system E. coli ATCC 25922. In words: hydrogen peroxide source growth inhibition assay with or without LP and KI. In kind it is cell-based. On the procedure: Aliquots (20 ml) of nutrient broth were inoculated with 10^8 cells of E. coli ATCC 25922, and 150 μl of the inoculated broth were added to wells in a 96 well growth plate. This was repeated with the inoculated broth being further supplemented with LP (37.5 μl of a 4 mg/ml solution) and KI (75 μl of a 40 mg/ml solution) to the medium.
Sources of hydrogen peroxide were added (150 μl) to well 1 and doubly diluted to well 11, but not to well 12, which acted as a control.

Data set [12] has as its system E. coli. Particulars: catalase treated.
Description: The antimicrobial properties of these compositions were tested using a doubling dilution 96-well plate growth assay-based method. An aliquot of the composition was added to 150 μl growth medium (with 1-2% glucose present) containing 10^7-8 bacterial cells, and brought to a final volume of 300 μl. The composition concentration was doubly diluted by the removal of 150 μl of the mixture and transfer to the next well containing 150 μl of identical growth medium, lacking the ROS producing components. The optical density of the medium was measured for 24 hours at 595 nm. […] Controls included wells to which none of the composition was supplemented, or wherein, one of the components was removed from the composition.
A further example of a pre-activated system was employed as follows: solutions (4 ml volumes) containing 0.85 M H2O2 plus none or 2.5 M NaCl/5 μl chloroperoxidase (˜10,000 Units/ml) were allowed incubate. The solutions were then split and either catalase treated (50 μl of a 4 mg/ml, >1,000 units/mg) or were not catalase treated. The relative antimicrobial properties of the solutions were then tested using the protocol as described in Example 1 using E. coli supplemented broth.
The subject of data set [13] is E. coli. Nature of the data set: milk inoculated with E. coli, enzymatic system with Beta-galactosidase. In kind it is cell-based. Particulars: component of the four-component system in milk inoculated with E. coli.
Data set [14] is described as follows: effect of milk pasteurisation heating on the enzymatic components. In kind it is physicochemical. As to conditions: held 15-600 seconds; activity read by E. coli total viable counts in milk after 24 hrs at 37° C. The procedure: An attempt was made to determine the effects of the milk pasteurisation process on the enzymatic components, which can be used to produce the reactive oxygen species of the composition of the present invention. Working concentrations of the enzymes were heated in 50 μl volumes to 72° C. and held for 15, 30, 60, 300 or 600 seconds.
Appropriate concentrations of these aliquots were then transferred to milk containing the necessary components of the system and ˜10^8 cells/ml E. coli. Total viable counts were performed after 24 hrs incubation at 37° C. This allowed the determination of whether the enzymes were still active after heating.

Setting [15] is: nutrient broth supplemented with KI and LP.

Turning to `NCC[C@H](O)C(=O)N[C@@H]1C[C@H](N)[C@@H](O[C@H]2O[C@H](CN)[C@@H](O)[C@H](O)[C@H]2O)[C@H](O)[C@H]1O[C@H]1O[C@H](CO)[C@@H](O)[C@H](N)[C@H]1O` [Amikacin], the “susceptibility of the strain to the antibiotic” value (“susceptibility of the strain” below) in data set [1], in data set [2], in data set [3] and in data set [4] was “R” each time.
With `O=C(O)c1cn(C2CC2)c2cc(N3CCNCC3)c(F)cc2c1=O` [Ciprofloxacin], the “susceptibility of the strain” value in [5], in data set [2] and in data set [3] was “R” each time.
With `[I-].[K+]` [Iodide, potassium iodide], in data set [6], the “last doubling dilution with substrate level sufficient for complete inhibition” value is given as 8. In [7], the “level of required substrate” value is reported as “approximately 0.5 mM”. Further, the “number of dilutions of the H2O2 producing sample with inhibition” value in data set [8] was “six”.
`N#C[S-].[K+]` [Thiocyanate, potassium thiocyanate]: the “last doubling dilution with substrate level sufficient for complete inhibition” value in [6] is recorded as 9. In data set [7], the “level of required substrate” value is given as “approximately 0.5 mM”. Moreover, the “number of dilutions of the H2O2 producing sample with inhibition” value in data set [8] is given as “two”.
For the compound `NC[C@H]1O[C@H](O[C@H]2[C@H](O)[C@@H](O[C@H]3O[C@H](CO)[C@@H](O)[C@H](N)[C@H]3O)[C@H](N)C[C@@H]2N)[C@H](N)C[C@@H]1O` [Tobramycin], the “susceptibility of the strain” value in [1] and in data set [2] was “R” in each case.
`CC(=O)NC[C@H]1CN(c2ccc(N3CCN(C(=O)CO)CC3)c(F)c2)C(=O)O1` [eperezolid]: the “result relative to gentamycin and vancomycin” value in [9] was “better results”.
Take `OO` [hydrogen peroxide]: in data set [10], the “effect of catalase on the inhibitory nature” value is given as “completely reverse the inhibitory nature”. For the same compound, the “greatest dilution of the hydrogen peroxide source inhibitory to E. coli” value in data set [11] (setting [15]) is on record as 1:32 dilution still not inhibitory. Further, in data set [12], the “dilutions at which inhibition of the bacteria was noted” value is “no inhibition”.
On to `CC(=O)NC[C@H]1CN(c2ccc(N3CCOCC3)c(F)c2)C(=O)O1` [linezolid], for which the “result relative to gentamycin and vancomycin” value in data set [9] is reported as “better results”.
On to `O=C([O-])[O-].O=C([O-])[O-].OO.OO.OO.[Na+].[Na+].[Na+].[Na+]` [sodium percarbonate solution, sodium percarbonate], for which the “greatest dilution of the hydrogen peroxide source inhibitory to E. coli” value in [11] (setting [15]) is recorded as “no difference as regards inhibition”; in data set [11] (nutrient broth without supplemented KI and LP), “identical to that observed following direct H2O2 addition”.
With `CN[C@H](CC(C)C)C(=O)N[C@H]1C(=O)N[C@@H](CC(N)=O)C(=O)N[C@H]2C(=O)N[C@H]3C(=O)N[C@H](C(=O)N[C@H](C(=O)O)c4cc(O)cc(O)c4-c4cc3ccc4O)[C@H](O)c3ccc(c(Cl)c3)Oc3cc2cc(c3O[C@@H]2O[C@H](CO)[C@@H](O)[C@H](O)[C@H]2O[C@H]2C[C@](C)(N)[C@H](O)[C@H](C)O2)Oc2ccc(cc2Cl)[C@H]1O` [vancomycin], the “duration of treatment after which biofilm cells were still recoverable” value in data set [9] was 7 days.
Turning to Gentamicin, in [9], the “duration of treatment after which biofilm cells were still recoverable” value is reported as 10 days. Also, the “susceptibility of the strain” value in [1], in [2] and in [3] was “R” in each case.
With Glucose oxidase, the “glucose oxidase level required” value in data set [7] (0.5% glucose) is given as 2 units/ml; in data set [7] (1% glucose) it was 1 units/ml; in [7] (LB broth, 2% glucose, 120 mg/L KI, 320 units LP), “at least 0.5 unit glucose oxidase/ml”. Also, in [13], the “concentration sufficient to observe antibacterial activity” value was ≥ 3.75 mg/L.
For the compound lactoperoxidase, the “enzyme activity after heating to 72° C.” value in [14] is on record as “demonstrated activity after 300 seconds heating”. Besides, the “level of LP required” value in data set [7] (1 mM KI present) was 0.15 unit activity/ml. In addition, the “concentration sufficient to observe antibacterial activity” value in [13] is ≥ 12 mg/L.
